Measurements as given in US8765459B2, “Apparatus and methods for manipulation and optimization of biological systems” (The Regents of the University of California, priority 2004, dated 2014).

B1: IL-1α: cytokine used as stimulus of NF-κB activity (protein, UniProt P01583 113-271, looked up)
Interleukin-1 alpha: SAPFSFLSNVKYNFMRIIKYEFILNDALNQSIIRANDQYLTAAALHNLDEAVKFDMGAYKSSKDDAKITVILRISKTQLYVTAQDEDQPVLLKEMPEIPKTITGSETNLLFFWETHGTKNYFTSVAHPNLFIATKQDYWVCLAGGPPSITDFQILENQA
B2: TNFβ: cytokine used as stimulus of NF-κB activity (protein, UniProt P01374 35-205, looked up)
Lymphotoxin-alpha: LPGVGLTPSAAQTARQHPKMHLAHSTLKPAAHLIGDPSKQNSLLWRANTDRAFLQDGFSLSNNSLLVPTSGIYFVYSQVVFSGKAYSPKATSSPLYLAHEVQLFSSQYPFHVPLLSSQKMVYPGLQEPWLHSMYHGAAFQLTQGDQLSTHTDGIPHLVLSPSTVFFGAFAL

Columns and labels:
NF-κB [1] = assay: Sensitivity analysis of individual cytokines in the potent combination, NF-κB GFP reporter, 96-well plates; format: cell-based; conditions: 293T cells; for effect on NF-κB activity when varied within the potent cytokine combination / decrease in fluorescence intensity on elimination of the cytokine from the cytokine combination: 96-well plates, other cytokines held constant, 1 h stimulation, fluorescence 7 h after
Protocol: (§1) Microfluidic systems have been proven to be effective for manipulating different biological objects, such as cells and molecules. In this example, the optimization experiments were conducted inside microfluidic channels to facilitate real-time monitoring and dynamic stimulation of the cells. (In FIGS. 7a, the concentrations of individual cytokines are indicated as follows: TNFα concentrations are plotted as solid squares; TNFβ concentrations are plotted as solid circles; IL-1α concentrations are plotted as solid triangles; IL-1β concentrations are plotted as inverted triangles; EFG concentrations are plotted as open squares; and BAFF concentrations are plotted as open circles.) The initial concentrations of the cytokines were 2.5 ng/ml. In order to monitor the activity of the NF-κB, a plasmid with a green fluorescent protein (GFP) reporter gene was placed in the 293T cell. The GFP expression is controlled by a promoter which consisted of a kappa enhancer element (κB4). Similar configurations have been applied in other studies where the GFP fluorescence intensity was able to reflect the cellular NF-κB activity. In addition, computational analysis was performed to correlate the relationship between the expression level of GPF and the activity of NF-κB. Numerical simulation indicated the best duration and time for cytokine stimulation and GFP intensity measurement. The GFP fluorescence intensity of each cell was recorded 7 hours after the stimulation as shown in FIG. 7B (data represent the average intensity of 40-128 cells).
Experiments were conducted in 96-well plates. The cells were stimulated with the appropriate concentration of cytokines for one hour and washed with fresh media.

NF-κB [2] = assay: Gur Game closed-loop optimization of cytokine combination, NF-κB GFP reporter in microfluidic channels; format: cell-based; conditions: 293T cells with κB4-GFP reporter; 1 h stimulation, GFP read 7 h after; determined by final probability distributions of Gur Game search
Protocol: To implement the Gur Game algorithm, each cytokine was represented by an automaton with 10 discrete states (0, 0.25, 0.5, 1, 2.5, 5, 10, 25, 50, and 100 ng/ml) as shown in FIG. 6. At each iteration, a combination of cytokines at their respective states was applied to stimulate the cells for one hour. […] The GFP expression kinetics is thought to be controlled by protein folding and degradation rates, while the amount of transcription (GFP intensity) is thought to provide an indication of the NF-κB activity. The peak intensities were normalized as the reward function for Gur Game. The reward function maps the system state from 0 to 1, with high GFP intensity corresponds to values nearer 1. For each automaton, a random number from 0 to 1 is chosen and compared with the reward value. The next states of the automata were determined according to a prescribed manner (see FIG. 1). The process was repeated for each cytokine during each iteration.
as §1
The Gur Game was used to determine the cytokine concentrations in subsequent iterations to probabilistically drive the system toward a high GFP output, i.e. high NF-κB activity. FIG. 6 is a flow chart illustrating an exemplary Gur Game Algorithm, the algorithm used in this example. A detailed description of this exemplary algorithm is set forth above. The peak intensities were normalized as the reward function for this exemplary Gur Game algorithm. The reward function maps the system state from 0 to 1, with high GFP intensity corresponds to values nearer 1. For each automaton, a random number from 0 to 1 is chosen and compared with the reward value.
The next states of the automata were determined according to a prescribed manner, as illustrated in FIG. 7. The process was repeated for each cytokine during each iteration. Each cytokine as represented by an automaton. The numbers represent the concentration of the cytokines, in ng/ml. During each iteration, a random number was generated for each automaton. The numbers were compared to the reward value. If the reward value was larger than the random number, the automaton was rewarded (win). Otherwise, the automaton was penalized (lose). The automaton then decided the state in the next iteration according to the automaton design. Generally, the state moves toward center if penalized, and away the center if rewarded.
Referring to FIGS. 8aand 8b, initially, the system rejected several cytokine combinations with seemingly high outputs. […]

Molecule | effect on NF-κB activity alone, without the potent cytokine combination (NF-κB [1]) | effect on NF-κB activity when varied within the potent cytokine combination (NF-κB [1]) | concentration in the most potent cytokine combination for activating NF-κB (NF-κB [2]) | decrease in fluorescence intensity on elimination of the cytokine from the cytokine combination (NF-κB [1])
BAFF: cytokine tested in the combination for NF-κB activity | minimal effect | minimal effect | 2.5 ng/mL | –
IL-1β: cytokine used as stimulus of NF-κB activity | – | not sensitive to their concentrations in the range of 25-50 ng/ml | 25 ng/mL | ~30%
TNFα | – | most sensitive in the combination | 25 ng/mL | ~50%
epidermal growth factor [EGF] | did not show a strong effect | decreased the NF-κB activity with increasing dose concentration | 2.5 ng/mL | –
B1 | – | not sensitive to their concentrations in the range of 25-50 ng/ml | 50 ng/mL | ~30%
B2 | – | – | 50 ng/mL | ~30%
